Experimental data from US8048869B2, “Pharmaceutical composition for use in hormone replacement therapy” (Pantarhei Bioscience B.V., priority 2001, dated 2011).

Columns and labels:
OVX-rats = assay: pQCT densitometry of proximal tibiae, ovariectomized aged rat osteoporosis model; format: in vivo; parameters: anti-resorptive activity compared with positive control EE: dose or concentration left out as unconfirmed; settings: po, 4 weeks; for Mean Total Bone Mineral Area / Mean Total Bone Mineral Content / Mean Total Bone Mineral Density / Mean Trabecular Bone Mineral Area / Mean Trabecular Bone Mineral Content / Mean Trabecular Bone Mineral Density: proximal tibiae
Method: The ovariectomized aged rat was used as a model for the human disease osteoporosis. This is an established animal model, recommended by the United States Food and Drug Administration (FDA), to evaluate and assess potential agents for osteoporosis prevention and therapy. The anti-resorptive efficacy of estetrol (E4) was tested by ex vivo measuring total and trabecular bone mineral density and bone strength after 4 weeks of treatment at necropsy. 17α-ethinyl-estradiol (EE) and vehicle (1% ethanol/arachidis oil) served as controls in this bioassay.
Three months old female Sprague-Dawley rats were either sham-operated (Sham) or ovariectomized (OVX) one day prior to commencement of the dosing study. Animals were anesthetized using a ketamine/xylazine anesthetic mixture and underwent a bilateral ovariectomy or were sham-treated. A section of hair on the dorsal surface was shaved and an incision made overlying the lumbar region of the spine. The skin was separated from the underlying fascia so that a second incision could be made through the abdominal musculature approximately caudal to the kidneys. The ovaries were then exteriorized and removed and the musculature was closed with a single suture. The skin incision was closed using surgical staples.
Ten animals per treatment group were orally dosed once per day for four consecutive weeks. […] Vehicle control was daily administered to one group of OVX-animals and sham-operated rats. After treatment, anesthetized rats were subjected to cardiac puncture and asphyxiated by CO2 inhalation. Tibiae and femura were removed, cleaned of soft-tissue and fixed and stored in 70% ethanol/saline at 4° C. (tibia) or saline at 4° C. (femura) until fuirther analysis.
Ex vivo peripheral Quantitative Computed Tomography (pQCT) was performed on the excised left tibiae using a Stratec XCT-RM and associated software (Stratec Medizintechnik GmbH, Pforzheim; Germany, software version 5.40). The scans were performed at 12% of the total length from the proximal end of the tibiae. The positions were verified using scout views and one 0.5-mm slice perpendicular to the long axis of the tibial shaft was acquired from each site. The scans were analyzed using a threshold for delineation of the external boundary. The total and trabecular bone mineral content, area and density at each site were determined. Furthermore, pQCT data for mean total bone mineral density are depicted in FIG. 1.

[1] = system: morphine-dependent ovariectomized (OVX) rat; assay: Morphine-dependent OVX rat hot flush model, naloxone-induced tail skin temperature rise; format: in vivo
Method: The morphine-dependent ovariectomized (OVX) rat was used as a model for postmenopausal hot flush. The potency of estetrol (E4) to prevent tail skin temperature rises, normally accompanied by a drop in core body temp arature, after naloxone-induced opiate withdrawel was tested. 17α-ethinyl-estradiol (EE) and vehicle. (hydroxy propyl-beta-cyclodextrin 20% wt/vol) served as controls in this bioassay.
The morphine-dependent ovariectomized (OVX) rat model has been proposed by several investigators (Katovich et al, 1986, Maturitas, 67-76; Merchenthaler et al. 1998, Maturitas, 307-316) as an animal model for the hot flush. During opiate withdrawal with the morphine antagonist naloxone, tail skin temperature (TST) rises and this rise is accompanied by a drop in core body temperature. In addition, the temperature changes are accompanied by surges in LH and a transient tachycardia. These events are similar in magnitude and temporal nature to those observed in the menopausal hot flush.
Three days prior to the commencement of dosing, animals were anesthetized using a ketamine/xylazine anesthetic mixture and underwent a bilateral ovariectomy. […]
For the hot flush manipulations the animals were placed in a test cage. […] The tail-skin temperature was recorded until it was stable and the animals were then injected with naloxone HCl (1 mg/kg). […]

[2] = system: human breast cancer cells (MCF-7); settings: cited from earlier work
[3] = molecular target: T1, rat uterine cytosol estrogen receptor (Rattus norvegicus, UniProt P06211); settings: cited from earlier work
T1 construct: host or cells: rat uterus (cytosol and nuclear fractions), Martucci et al. 1976
T1 sequence (P06211 1-600): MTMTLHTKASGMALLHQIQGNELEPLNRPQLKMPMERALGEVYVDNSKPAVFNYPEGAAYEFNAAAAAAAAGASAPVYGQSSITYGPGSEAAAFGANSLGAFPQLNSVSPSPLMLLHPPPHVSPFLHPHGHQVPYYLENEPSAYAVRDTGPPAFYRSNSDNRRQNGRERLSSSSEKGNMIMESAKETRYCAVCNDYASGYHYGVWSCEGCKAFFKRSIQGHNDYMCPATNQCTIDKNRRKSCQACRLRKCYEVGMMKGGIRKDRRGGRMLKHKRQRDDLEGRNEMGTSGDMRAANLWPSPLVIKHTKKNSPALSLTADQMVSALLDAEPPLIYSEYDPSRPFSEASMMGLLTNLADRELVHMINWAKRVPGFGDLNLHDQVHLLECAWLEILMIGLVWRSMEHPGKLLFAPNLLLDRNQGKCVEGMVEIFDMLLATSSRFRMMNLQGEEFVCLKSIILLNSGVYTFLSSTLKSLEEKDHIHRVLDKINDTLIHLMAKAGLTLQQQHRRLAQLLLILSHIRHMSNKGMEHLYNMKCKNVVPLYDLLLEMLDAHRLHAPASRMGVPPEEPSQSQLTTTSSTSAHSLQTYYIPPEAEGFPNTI

[4] = molecular target: T2, rat uterine nuclear estrogen receptor (Rattus norvegicus, UniProt P06211); settings: cited from earlier work
T2 construct: host or cells: rat uterus (cytosol and nuclear fractions), Martucci et al. 1976
T2 sequence (P06211 1-600): T1 sequence (P06211 1-600)

C[C@]12CC[C@@H]3c4ccc(O)cc4CC[C@H]3[C@@H]1[C@@H](O)[C@@H](O)[C@@H]2O [E4, 1,3,5 (10)-estratrien-3,15α,16α,17β-tetrol]
Mean Total Bone Mineral Area (OVX-rats; 0.1 mg/kg/day): 14.41 mm^2 | Mean Total Bone Mineral Content (OVX-rats; 0.1 mg/kg/day): 8.46 mg/mm | Mean Total Bone Mineral Density (OVX-rats; 0.1 mg/kg/day): 588.62 mg/mL | Mean Trabecular Bone Mineral Area (OVX-rats; 0.1 mg/kg/day): 6.48 mm^2 | Mean Trabecular Bone Mineral Content (OVX-rats; 0.1 mg/kg/day): 0.96 mg/mm | Mean Trabecular Bone Mineral Density (OVX-rats; 0.1 mg/kg/day): 145.46 mg/mL | Mean Total Bone Mineral Area (OVX-rats; 0.5 mg/kg/day): 14.80 mm^2 | Mean Total Bone Mineral Content (OVX-rats; 0.5 mg/kg/day): 9.74 mg/mm | Mean Total Bone Mineral Density (OVX-rats; 0.5 mg/kg/day): 660.57 mg/mL | Mean Trabecular Bone Mineral Area (OVX-rats; 0.5 mg/kg/day): 6.65 mm^2 | Mean Trabecular Bone Mineral Content (OVX-rats; 0.5 mg/kg/day): 1.60 mg/mm | Mean Trabecular Bone Mineral Density (OVX-rats; 0.5 mg/kg/day): 243.31 mg/mL | anti-resorptive activity compared with positive control EE (OVX-rats; highest dose): equivalent to the effect seen with the positive control EE | suppressive response on TST compared with EE ([1]; po, 3.0 mg/kg/day (FIG. 3)): suppressive response similar to the potent oral estrogen, 17α-ethinyl estradiol (EE) | effect on naloxone-induced tail skin temperature (TST) ([1]; po, 0.3, 1.0 and 3.0 mg/kg/day (FIG. 3)): attenuated the TST | agonistic potency in in vitro cell proliferation, relative to 17β-estradiol [2]: 2% | relative binding affinity, 17β-estradiol = 100% [3]: 0.5% | relative binding affinity, 17β-estradiol = 100% [4]: 0.3%
